# Data as given in ChEMBL document CHEMBL5512631, “Research progress of DDR1 inhibitors in the treatment of multiple human diseases” (Eur J Med Chem, 2024).
# pEC50, pIC50, pKd: −log10 of the molar value.
# Legend:
# [1] = biological target: T1, Epithelial discoidin domain-containing receptor 1 (Homo sapiens, UniProt Q08345); test: Inhibition of DDR1 (unknown origin)
# [2] = biological target: T1, Epithelial discoidin domain-containing receptor 1; test: Inhibition of DDR1 (unknown origin) at 10 uM by DiscoverX KINOMEscan assay relative to control
# [3] = biological target: T2, Discoidin domain-containing receptor 2 (Homo sapiens, UniProt Q16832); test: Inhibition of human DDR2 by discoverX kinome scan assay
# T2 sequence (Q16832 whole entry): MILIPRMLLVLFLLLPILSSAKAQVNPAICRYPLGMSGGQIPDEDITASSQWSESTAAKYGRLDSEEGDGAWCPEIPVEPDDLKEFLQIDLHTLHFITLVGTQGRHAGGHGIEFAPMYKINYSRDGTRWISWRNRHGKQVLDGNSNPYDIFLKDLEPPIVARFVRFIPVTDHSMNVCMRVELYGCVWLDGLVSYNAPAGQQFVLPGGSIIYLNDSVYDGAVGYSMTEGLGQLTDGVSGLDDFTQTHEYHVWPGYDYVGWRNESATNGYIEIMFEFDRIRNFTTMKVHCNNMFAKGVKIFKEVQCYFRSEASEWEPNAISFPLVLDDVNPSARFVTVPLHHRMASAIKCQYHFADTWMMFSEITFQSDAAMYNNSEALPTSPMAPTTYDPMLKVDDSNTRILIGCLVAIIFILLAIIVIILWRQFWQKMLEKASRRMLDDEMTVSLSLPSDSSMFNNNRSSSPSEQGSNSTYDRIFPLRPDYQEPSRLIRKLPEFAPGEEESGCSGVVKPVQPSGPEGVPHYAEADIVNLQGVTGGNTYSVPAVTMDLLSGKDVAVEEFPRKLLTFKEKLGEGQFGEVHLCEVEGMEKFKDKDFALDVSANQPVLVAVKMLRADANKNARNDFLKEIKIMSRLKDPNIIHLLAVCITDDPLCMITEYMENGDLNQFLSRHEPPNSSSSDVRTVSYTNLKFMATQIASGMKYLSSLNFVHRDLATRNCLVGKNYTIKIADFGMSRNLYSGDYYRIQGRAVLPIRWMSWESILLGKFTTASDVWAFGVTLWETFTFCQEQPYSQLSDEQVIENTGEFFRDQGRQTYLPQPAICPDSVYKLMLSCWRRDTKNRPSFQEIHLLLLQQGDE
# [4] = biological target: Vascular endothelial growth factor receptor 2 (Homo sapiens) (UniProt P35968); test: Inhibition of KDR (unknown origin) at 100 nM by ADP-Glo assay relative to control
# [5] = biological target: T1, Epithelial discoidin domain-containing receptor 1; test: Inhibition of GST-tagged recombinant DDR1 (unknown origin) expressed in Escherichia coli BL21 by DiscoverX KINOMEscan assay
# [6] = biological target: T2, Discoidin domain-containing receptor 2; test: Inhibition of GST-tagged recombinant DDR2 (unknown origin) expressed in Escherichia coli BL21 by DiscoverX KINOMEscan assay
# [7] = Clearance in human liver microsomes measured upto […] by HPLC-MS/MS analysis; type: ADME, Microsome
# [8] = Clearance in C57BL/6 mouse at 1 mg/kg, iv measured upto 8 hrs by HPLC analysis; type: ADME, organism-based; conditions: in vivo
# [9] = biological target: Vascular endothelial growth factor receptor 2 (Homo sapiens) (UniProt P35968); test: Inhibition of KDR (unknown origin) at 100 nM relative to control
# [10] = biological target: T1, Epithelial discoidin domain-containing receptor 1; test: Inhibition of flag-tagged DDR1 (unknown origin) by TR-FRET assay
# [11] = biological target: Proto-oncogene tyrosine-protein kinase receptor Ret (Homo sapiens) (UniProt P07949); test: Inhibition of RET (unknown origin) at 100 uM using Poly(4:1 Glu, Tyr) as substrate in presence of ATP by absorbance based analysis relative to control
# U2OS = test: Antiproliferative activity against human U2OS cells […] assessed as reduction in cell viability incubated for 24 hrs by MTT assay; type: functional, cell-based
# [12] = Aqueous solubility of compound in phosphate buffer at pH 6.5; type: physicochemical
# [13] = biological target: T1, Epithelial discoidin domain-containing receptor 1; test: Binding affinity to DDR1 (unknown origin) assessed as dissociation constant
# [14] = Microsomal stability in rat liver microsomes assessed as intrinsic clearance; type: ADME, Microsome
# [15] = biological target: T2, Discoidin domain-containing receptor 2; test: Inhibition of DDR2 (unknown origin) using Fluorescein-Poly GAT as substrate by TR-FRET analysis
# [16] = biological target: T1, Epithelial discoidin domain-containing receptor 1; test: Inhibition of DDR1 (unknown origin) using Fluorescein-Poly GAT as substrate by TR-FRET analysis
# [17] = biological target: T2, Discoidin domain-containing receptor 2; test: Inhibition of DDR2 (unknown origin) by ADP-Glo assay
# [18] = biological target: T2, Discoidin domain-containing receptor 2; test: Inhibition of flag-tagged DDR2 (unknown origin) by TR-FRET assay
# [19] = biological target: Receptor-type tyrosine-protein kinase FLT3 (Homo sapiens) (UniProt P36888); test: Inhibition of FLT3 (unknown origin) at 100 nM relative to control
# Receptor-type tyrosine-protein kinase FLT3 (Homo sapiens), sequence (P36888 whole entry): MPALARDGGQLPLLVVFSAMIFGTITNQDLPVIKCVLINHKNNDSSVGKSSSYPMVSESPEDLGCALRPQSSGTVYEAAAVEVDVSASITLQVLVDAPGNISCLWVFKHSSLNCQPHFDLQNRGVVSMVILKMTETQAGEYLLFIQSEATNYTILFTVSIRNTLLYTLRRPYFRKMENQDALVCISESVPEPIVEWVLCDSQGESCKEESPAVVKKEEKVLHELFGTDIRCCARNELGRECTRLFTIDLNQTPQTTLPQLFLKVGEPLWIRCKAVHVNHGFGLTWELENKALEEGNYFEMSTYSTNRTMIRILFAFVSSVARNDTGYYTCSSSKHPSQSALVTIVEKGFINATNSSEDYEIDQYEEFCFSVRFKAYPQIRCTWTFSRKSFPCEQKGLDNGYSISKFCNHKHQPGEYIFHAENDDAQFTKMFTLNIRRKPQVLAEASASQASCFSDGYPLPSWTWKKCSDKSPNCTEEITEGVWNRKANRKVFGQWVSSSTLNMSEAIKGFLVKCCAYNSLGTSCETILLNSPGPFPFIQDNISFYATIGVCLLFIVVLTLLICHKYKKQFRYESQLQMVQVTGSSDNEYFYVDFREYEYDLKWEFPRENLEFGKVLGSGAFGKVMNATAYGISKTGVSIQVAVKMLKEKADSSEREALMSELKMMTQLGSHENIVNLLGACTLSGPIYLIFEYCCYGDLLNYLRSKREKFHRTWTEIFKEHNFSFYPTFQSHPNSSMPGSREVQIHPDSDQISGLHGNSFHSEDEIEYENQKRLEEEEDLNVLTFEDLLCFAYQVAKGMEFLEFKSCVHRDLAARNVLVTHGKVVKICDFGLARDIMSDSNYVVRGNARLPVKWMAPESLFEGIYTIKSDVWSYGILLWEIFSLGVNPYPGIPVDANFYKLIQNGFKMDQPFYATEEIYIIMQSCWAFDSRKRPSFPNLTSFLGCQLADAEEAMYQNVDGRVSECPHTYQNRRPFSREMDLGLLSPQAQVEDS
# T1 sequence (Q08345 whole entry, the tested form may be a part): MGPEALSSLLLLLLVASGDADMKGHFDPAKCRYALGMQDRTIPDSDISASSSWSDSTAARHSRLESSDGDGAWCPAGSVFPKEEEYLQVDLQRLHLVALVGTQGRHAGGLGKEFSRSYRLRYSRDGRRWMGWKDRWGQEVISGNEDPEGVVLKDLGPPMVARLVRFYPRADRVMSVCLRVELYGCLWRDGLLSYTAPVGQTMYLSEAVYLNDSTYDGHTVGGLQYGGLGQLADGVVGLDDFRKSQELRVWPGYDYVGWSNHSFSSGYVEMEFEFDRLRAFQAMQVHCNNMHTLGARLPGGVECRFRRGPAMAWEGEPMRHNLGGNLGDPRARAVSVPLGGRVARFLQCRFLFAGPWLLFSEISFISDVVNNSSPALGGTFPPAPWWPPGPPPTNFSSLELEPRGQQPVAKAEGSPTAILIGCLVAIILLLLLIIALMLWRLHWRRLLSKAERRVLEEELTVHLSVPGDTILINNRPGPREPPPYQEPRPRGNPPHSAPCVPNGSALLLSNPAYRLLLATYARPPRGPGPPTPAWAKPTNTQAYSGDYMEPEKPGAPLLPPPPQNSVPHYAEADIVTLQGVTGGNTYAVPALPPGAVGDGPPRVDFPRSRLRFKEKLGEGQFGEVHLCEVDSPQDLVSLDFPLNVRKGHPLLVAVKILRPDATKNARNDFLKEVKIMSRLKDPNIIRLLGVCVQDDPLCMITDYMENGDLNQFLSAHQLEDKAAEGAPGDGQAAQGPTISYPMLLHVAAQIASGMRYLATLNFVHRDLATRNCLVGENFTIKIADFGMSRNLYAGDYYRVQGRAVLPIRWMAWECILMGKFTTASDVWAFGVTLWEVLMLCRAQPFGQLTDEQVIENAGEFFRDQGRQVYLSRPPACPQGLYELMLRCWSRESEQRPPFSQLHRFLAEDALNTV
# Proto-oncogene tyrosine-protein kinase receptor Ret (Homo sapiens), sequence (P07949 whole entry): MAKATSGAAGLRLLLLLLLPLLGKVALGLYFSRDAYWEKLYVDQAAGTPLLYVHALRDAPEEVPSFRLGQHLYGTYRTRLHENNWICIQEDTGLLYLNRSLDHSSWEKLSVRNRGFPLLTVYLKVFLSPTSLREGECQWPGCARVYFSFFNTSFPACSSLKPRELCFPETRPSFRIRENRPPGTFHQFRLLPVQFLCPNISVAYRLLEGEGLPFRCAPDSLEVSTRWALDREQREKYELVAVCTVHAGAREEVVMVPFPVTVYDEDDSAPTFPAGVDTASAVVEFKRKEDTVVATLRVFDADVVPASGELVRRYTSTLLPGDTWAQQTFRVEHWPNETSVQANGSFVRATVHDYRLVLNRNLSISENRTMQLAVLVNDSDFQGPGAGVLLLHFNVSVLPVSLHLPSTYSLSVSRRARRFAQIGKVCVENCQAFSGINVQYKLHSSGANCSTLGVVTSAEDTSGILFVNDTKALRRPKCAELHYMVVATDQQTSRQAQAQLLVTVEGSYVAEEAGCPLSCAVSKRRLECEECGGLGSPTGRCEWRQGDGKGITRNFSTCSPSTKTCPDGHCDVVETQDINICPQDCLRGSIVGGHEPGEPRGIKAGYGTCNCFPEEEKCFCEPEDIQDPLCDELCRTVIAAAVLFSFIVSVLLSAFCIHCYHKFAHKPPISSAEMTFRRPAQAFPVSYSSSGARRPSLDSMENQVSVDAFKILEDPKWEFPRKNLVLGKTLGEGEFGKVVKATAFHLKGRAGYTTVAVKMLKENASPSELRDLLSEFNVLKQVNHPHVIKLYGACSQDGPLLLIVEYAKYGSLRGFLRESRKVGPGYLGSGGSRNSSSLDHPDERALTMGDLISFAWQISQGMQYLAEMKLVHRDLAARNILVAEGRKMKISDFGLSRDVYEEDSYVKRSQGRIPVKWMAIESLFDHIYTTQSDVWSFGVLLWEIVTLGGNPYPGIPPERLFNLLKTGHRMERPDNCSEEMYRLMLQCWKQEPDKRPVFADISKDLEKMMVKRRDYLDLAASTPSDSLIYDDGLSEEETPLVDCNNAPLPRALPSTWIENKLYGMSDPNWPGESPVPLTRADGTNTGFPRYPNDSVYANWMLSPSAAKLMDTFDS
# Vascular endothelial growth factor receptor 2 (Homo sapiens), sequence (P35968 whole entry, the tested form may be a part): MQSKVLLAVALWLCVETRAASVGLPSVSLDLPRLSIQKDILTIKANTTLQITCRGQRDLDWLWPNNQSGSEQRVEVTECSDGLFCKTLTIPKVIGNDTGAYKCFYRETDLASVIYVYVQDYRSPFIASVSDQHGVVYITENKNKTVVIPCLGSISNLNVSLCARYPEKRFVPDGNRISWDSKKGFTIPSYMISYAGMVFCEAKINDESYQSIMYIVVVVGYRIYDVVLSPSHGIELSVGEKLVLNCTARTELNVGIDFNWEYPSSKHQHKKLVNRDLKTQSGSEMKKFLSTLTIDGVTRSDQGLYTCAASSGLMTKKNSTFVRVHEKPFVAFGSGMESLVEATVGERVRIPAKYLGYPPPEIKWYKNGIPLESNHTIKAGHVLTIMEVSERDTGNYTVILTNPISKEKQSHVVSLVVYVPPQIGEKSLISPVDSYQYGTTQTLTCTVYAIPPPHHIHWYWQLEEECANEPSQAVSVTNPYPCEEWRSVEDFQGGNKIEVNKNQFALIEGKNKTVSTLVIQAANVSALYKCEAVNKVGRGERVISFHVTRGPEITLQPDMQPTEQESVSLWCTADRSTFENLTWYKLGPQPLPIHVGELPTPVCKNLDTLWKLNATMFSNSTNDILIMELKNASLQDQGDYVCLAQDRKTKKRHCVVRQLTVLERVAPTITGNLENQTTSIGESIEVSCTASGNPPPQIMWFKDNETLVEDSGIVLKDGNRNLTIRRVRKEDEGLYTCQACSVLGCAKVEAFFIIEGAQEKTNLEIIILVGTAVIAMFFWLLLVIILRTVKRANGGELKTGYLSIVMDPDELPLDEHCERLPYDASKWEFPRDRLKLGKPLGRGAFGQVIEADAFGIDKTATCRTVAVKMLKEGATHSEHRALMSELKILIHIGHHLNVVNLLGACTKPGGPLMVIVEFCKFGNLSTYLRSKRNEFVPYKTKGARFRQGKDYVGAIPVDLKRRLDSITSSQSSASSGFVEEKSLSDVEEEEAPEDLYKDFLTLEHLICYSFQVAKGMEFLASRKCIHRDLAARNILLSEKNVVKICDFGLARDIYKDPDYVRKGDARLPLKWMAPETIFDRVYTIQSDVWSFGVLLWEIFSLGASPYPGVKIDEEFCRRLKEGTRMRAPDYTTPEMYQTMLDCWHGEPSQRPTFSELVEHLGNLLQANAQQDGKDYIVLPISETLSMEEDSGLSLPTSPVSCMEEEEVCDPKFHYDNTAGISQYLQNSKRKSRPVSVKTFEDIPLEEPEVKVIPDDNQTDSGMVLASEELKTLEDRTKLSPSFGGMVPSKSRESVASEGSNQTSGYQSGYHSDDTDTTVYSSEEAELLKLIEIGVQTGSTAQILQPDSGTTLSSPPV
compound,measurement,setting,value
CC(=O)Nc1ccc(-n2nc3c(=O)[nH]nc(N)c3c2-c2oc3cc(C(=O)Nc4ccccc4C(F)(F)F)ccc3c2C)cc1,pIC50,[1],7.99
CCc1cccc2c(/C=C3\NC(=S)N(c4ccc(C)c(C)c4)C3=O)cn(CC(=O)NCCOC)c12,inhibition,[2],70.4%
Cc1cccc(C(=O)N[C@@H](C)c2ccc(C3CC3)c(-c3ccc4nc(Nc5cnn(C6CC6)c5)ncc4c3)c2)c1,pIC50,[3],7.51
same,inhibition,[4],24.2%
Cc1ccc2c(Nc3cccc(C(F)(F)F)c3)noc2c1C#Cc1cn2ncccc2n1,pIC50,[5],8.00
O=C(CN1CN(c2ccccc2)C2(CCN(C(=O)c3ccc4[nH]ncc4c3)CC2)C1=O)NCC(F)(F)F,pIC50,[6],6.09
same,pIC50,[5],7.82
CNC(=O)CN1CN(c2ccccc2)C2(CCN(C(=O)c3ccc4[nH]ncc4c3)CC2)C1=O,CLH,[7],12 µL/min/mg
same,clearance,[8],110 mL/min/kg
O=C(Nc1cccc(C(F)(F)F)c1)c1ccc(C2CC2)c(-c2ccc3nc(Nc4cnn(C5CC5)c4)ncc3c2)c1,inhibition,[9],100%
same,pIC50,[10],7.76
same,inhibition,[11],18.6%
CCN1CCN(Cc2ccc(C(=O)Nc3ccc(C)c(Oc4ccc5c(c4)CC(=O)N5)c3)cc2C(F)(F)F)CC1,pEC50,U2OS,7.07
O=C(CN1CN(c2ccccc2)C2(CCN(C(=O)c3ccc4[nH]ncc4n3)CC2)C1=O)NCC(F)(F)F,CLH,[7],28 µL/min/mg
same,pIC50,[6],6.07
same,pIC50,[5],7.74
same,solubility,[12],365 µg/mL
same,clearance,[8],120 mL/min/kg
CCc1ccc(C(=O)Nc2cc(CN3CCN(C)CC3)cc(C(F)(F)F)c2)cc1-c1cccc(-c2cnc3ccnn3c2)c1,pKd,[13],8.66
same,pIC50,[1],8.18
Cc1ccc(C(=O)Nc2cccc(C(F)(F)F)c2)cc1Nc1cncc(C(N)=O)c1,CLint,[14],60 µL/min/mg
Cc1cccc(Cl)c1NC(=O)c1cnc(Nc2cc(N3CCN(C(=O)OCCN4CCOCC4)CC3)ncn2)s1,pIC50,[15],8.15
same,pIC50,[16],8.65
Cc1ccc(C(=O)Nc2cccc(C(F)(F)F)c2)cc1NCc1cccc(C(N)=O)c1,pIC50,[17],8.32
O=C(CN1C(=O)C2(CCN(C(=O)c3ccc4[nH]ncc4n3)CC2)c2c(Br)cccc21)NCC(F)(F)F,CLH,[7],10 µL/min/mg
same,clearance,[8],103 mL/min/kg
O=C(Cc1ccc(Cl)c(COc2ccccc2)c1)c1cccc(C(F)(F)F)c1,pIC50,[1],7.03
Cc1ccc(C(=O)Nc2cccc(C(F)(F)F)c2)cc1-c1ccc2nc(Nc3cnn(C)c3)ncc2c1,pIC50,[18],8.66
same,inhibition,[11],97.2%
same,inhibition,[19],80.3%
Cc1c(-c2c3c(N)n[nH]c(=O)c3nn2-c2ccc(C(N)=O)cc2)oc2cc(C(=O)Nc3ccccc3C(F)(F)F)ccc12,pIC50,[1],7.97
